This passage reports Ki results from US20230126391A1, “ALPHA-METHYL-SUBSTITUTED DIAZABICYCLO[4.3.1] DECANE DERIVATIVES FOR TREATMENT OF PSYCHIATRIC DISORDERS” (priority 2020, published 2023).

Like-named read-outs stand apart in the source and are kept apart here.

In one assay the target is LpMip (Legionella pneumophila subsp. pneumophila, UniProt Q5ZXE0). The experiment in a line: biochemical. Format: binding.
For the next assay, the target named is T1, FKBP52 (Homo sapiens, UniProt Q02790).
T1 sequence (Q02790 1-459): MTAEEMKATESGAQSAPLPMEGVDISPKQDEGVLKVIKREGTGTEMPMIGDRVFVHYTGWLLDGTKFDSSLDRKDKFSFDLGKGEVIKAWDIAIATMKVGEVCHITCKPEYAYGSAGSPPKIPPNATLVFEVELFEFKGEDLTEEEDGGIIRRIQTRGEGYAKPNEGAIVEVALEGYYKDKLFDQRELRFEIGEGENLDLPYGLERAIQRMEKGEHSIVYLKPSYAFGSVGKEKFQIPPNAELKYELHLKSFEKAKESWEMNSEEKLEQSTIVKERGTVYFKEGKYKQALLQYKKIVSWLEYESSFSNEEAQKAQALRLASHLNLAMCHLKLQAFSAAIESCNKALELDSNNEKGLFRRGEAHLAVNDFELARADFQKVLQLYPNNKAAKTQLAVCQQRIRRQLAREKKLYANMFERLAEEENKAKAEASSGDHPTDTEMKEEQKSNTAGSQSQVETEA
Nature of the assay: FP assay, binding to human FKBPs (Table 1). The note with it: fluorescence polarization assay.

The next assay has as its target FKBP12.6 (Homo sapiens, UniProt P68106). The experiment in a line: FP assay, binding to human FKBPs (Table 1). The note with it: fluorescence polarization assay. In general terms: In fluorescence polarisation assays a small probe gives low polarisation when free and higher when bound to something large.
Another assay concerns the target FKBP12 (Homo sapiens, UniProt P62942). Nature of the assay: FP assay, binding to human FKBPs (Table 1). The note with it: fluorescence polarization assay.
In the next assay the target is T2, FKBP51 (Homo sapiens, UniProt Q13451).
T2 sequence (Q13451 1-457): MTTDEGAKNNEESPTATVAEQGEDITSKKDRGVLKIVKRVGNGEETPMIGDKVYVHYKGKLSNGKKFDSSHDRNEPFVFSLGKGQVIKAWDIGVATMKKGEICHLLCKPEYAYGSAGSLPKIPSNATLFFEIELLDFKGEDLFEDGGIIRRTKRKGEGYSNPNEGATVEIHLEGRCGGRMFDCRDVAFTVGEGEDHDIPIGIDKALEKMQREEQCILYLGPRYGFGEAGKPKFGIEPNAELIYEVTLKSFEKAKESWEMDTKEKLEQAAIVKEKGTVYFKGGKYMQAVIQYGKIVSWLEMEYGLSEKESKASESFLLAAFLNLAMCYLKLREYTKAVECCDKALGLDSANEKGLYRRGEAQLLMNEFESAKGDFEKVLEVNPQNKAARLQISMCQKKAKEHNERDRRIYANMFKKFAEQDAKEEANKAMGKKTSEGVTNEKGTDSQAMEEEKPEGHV
The experiment in a line: FP assay, binding to human FKBPs (Table 1). The note with it: fluorescence polarization assay.

Chain of FKBP12 (P62942 whole entry): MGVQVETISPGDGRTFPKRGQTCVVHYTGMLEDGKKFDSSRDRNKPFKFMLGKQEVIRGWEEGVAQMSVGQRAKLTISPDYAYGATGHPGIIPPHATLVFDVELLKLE
Chain of LpMip (Q5ZXE0 21-233 limits assumed): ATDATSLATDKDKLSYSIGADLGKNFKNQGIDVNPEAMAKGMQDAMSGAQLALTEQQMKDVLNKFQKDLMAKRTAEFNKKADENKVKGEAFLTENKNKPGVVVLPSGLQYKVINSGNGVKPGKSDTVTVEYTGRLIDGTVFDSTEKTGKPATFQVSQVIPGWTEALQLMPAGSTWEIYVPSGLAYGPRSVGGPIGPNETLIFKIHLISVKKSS
Chain of FKBP12.6 (P68106 whole entry): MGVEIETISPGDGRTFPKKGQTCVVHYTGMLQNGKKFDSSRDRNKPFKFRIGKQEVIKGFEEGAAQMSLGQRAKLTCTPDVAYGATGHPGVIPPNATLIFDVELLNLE

What is called Ki is a dissociation constant, usually derived from enzyme kinetics or from competition with a known ligand. On to `C=C[C@H]1CN(Cc2ccccn2)C(=O)[C@@H]2CCC[C@H]1N2S(=O)(=O)c1cc(Cl)cc(Cl)c1` [6a], for which the inhibition constant Ki at LpMip (read-out: Ki LpMip) was found to be 1350 nM; at FKBP52 it was 54 nM; on FKBP12.6, 17 nM; on FKBP12 it was 1.3 nM; on FKBP51 it was 119 nM.
In the case of `C=C[C@H]1CN([C@@H](C)c2ccccn2)C(=O)[C@@H]2CCC[C@H]1N2S(=O)(=O)c1cc(Cl)cc(Cl)c1` [6d, (1S,5S,6R)-10-((3,5-dichlorophenyl)sulfonyl)-3-((S)-1-(pyridin-2-yl)ethyl)-5-vinyl-3,10-diazabicyclo[4.3.1]decan-2-one], the inhibition constant (Ki) on LpMip was 171 nM; on FKBP52, 2.2 nM; at FKBP12.6, 0.41 nM; on FKBP12, 0.15 nM; on FKBP51 it was 2.6 nM.
Turning to `C=C[C@H]1CN([C@H](C)c2ccccn2)C(=O)[C@@H]2CCC[C@H]1N2S(=O)(=O)c1cc(Cl)cc(Cl)c1` [6e], the Ki at FKBP52 is above 1000 nM; at FKBP12.6, 812 nM; on FKBP12, 130 nM; at FKBP51 it was above 1000 nM.
Regarding `C=C[C@H]1CN(Cc2ccccn2)C(=O)[C@@H]2CCC[C@H]1N2S(=O)(=O)c1ccc2ncsc2c1` [7a], the Ki on LpMip (read-out: Ki LpMip) turned out to be 5840 nM; at FKBP52, 276 nM; on FKBP12.6 it was 6 nM; at FKBP12 it was 7.5 nM; on FKBP51, 294 nM.
Turning to `C=C[C@H]1CN([C@@H](C)c2ccccn2)C(=O)[C@@H]2CCC[C@H]1N2S(=O)(=O)c1ccc2ncsc2c1` [7d, (1S,5S,6R)-10-(benzo[d]thiazol-6-ylsulfonyl)-3-((S)-1-(pyridin-2-yl)ethyl)-5-vinyl-3,10-diazabicyclo[4.3.1]decan-2-one], the inhibitory constant (Ki) at LpMip was determined as 366 nM; on FKBP52, 29 nM; at FKBP12.6, 0.9 nM; on FKBP12, 2.2 nM; at FKBP51, 33 nM.
In the case of `C=C[C@H]1CN([C@H](C)c2ccccn2)C(=O)[C@@H]2CCC[C@H]1N2S(=O)(=O)c1ccc2ncsc2c1` [7e], the Ki on FKBP52 was 3450 nM; at FKBP12.6, 157 nM; on FKBP12 it was 240 nM; at FKBP51, 4550 nM.
With `C=C[C@H]1CN([C@@H](C)COCc2ccccc2)C(=O)[C@@H]2CCC[C@H]1N2S(=O)(=O)c1cc(Cl)cc(Cl)c1` [15a, (1S,5S,6R)-3-((S)-1-(benzyloxy)propan-2-yl)-10-((3,5-dichlorophenyl)sulfonyl)-5-vinyl-3,10-diazabicyclo[4.3.1]decan-2-one], the inhibition constant Ki at FKBP52 is 1030 nM; at FKBP12, 58 nM; at FKBP51, 1080 nM.
The like results for `C=C[C@H]1CN([C@H](C)COCc2ccccc2)C(=O)[C@@H]2CCC[C@H]1N2S(=O)(=O)c1cc(Cl)cc(Cl)c1` [15b] were, in that order, above 5000 nM, above 5000 nM and above 5000 nM.
On to `C=C[C@H]1CN([C@@H](C)COCc2ccccc2)C(=O)[C@@H]2CCC[C@H]1N2S(=O)(=O)c1ccc2ncsc2c1` [16a, (1S,5S,6R)-10-(benzo[d]thiazol-6-ylsulfonyl)-3-((S)-1-(benzyloxy)propan-2-yl)-5-vinyl-3,10-diazabicyclo[4.3.1]decan-2-one], for which the Ki was 316 nM at FKBP52, 28 nM on FKBP12 and 263 nM on FKBP51.
The like results for `C=C[C@H]1CN([C@H](C)COCc2ccccc2)C(=O)[C@@H]2CCC[C@H]1N2S(=O)(=O)c1ccc2ncsc2c1` [16b] were, in that order, above 5000 nM, above 5000 nM and above 5000 nM.
Turning to `C=C[C@H]1CN([C@@H](C)CO)C(=O)[C@@H]2CCC[C@H]1N2S(=O)(=O)c1ccc2ncsc2c1` [17a, (1S,5S,6R)-10-(benzo[d]thiazol-6-ylsulfonyl)-3-((S)-1-hydroxypropan-2-yl)-5-vinyl-3,10-diazabicyclo[4.3.1]decan-2-one], the results for the Ki on FKBP52, at FKBP12 and at FKBP51 were 102 nM, 21 nM and 110 nM, respectively.
Taken in the same sequence, the figures for `C=C[C@H]1CN([C@H](C)CO)C(=O)[C@@H]2CCC[C@H]1N2S(=O)(=O)c1ccc2ncsc2c1` [17b] were above 5000 nM, above 5000 nM and above 5000 nM.
As to `C=C[C@H]1CN(Cc2cn(-c3ccc(OC)cc3)nn2)C(=O)[C@@H]2CCC[C@H]1N2S(=O)(=O)c1cc(Cl)cc(Cl)c1` [19a], the Ki at FKBP52 was determined as 361 nM; on FKBP12.6, 16 nM; at FKBP12, 15 nM.
The like results for `C=C[C@H]1CN([C@@H](C)c2cn(-c3ccc(OC)cc3)nn2)C(=O)[C@@H]2CCC[C@H]1N2S(=O)(=O)c1cc(Cl)cc(Cl)c1` [19b, (1S,5S,6R)-10-((3,5-dichlorophenyl)sulfonyl)-3-((S)-1-(1-(4-methoxyphenyl)-1H-1,2,3-triazol-4-yl)ethyl)-5-vinyl-3,10-diazabicyclo[4.3.1]decan-2-one] were, in that order, 91 nM, 16 nM and 4.3 nM.
Taken in the same sequence, the figures for `C=C[C@H]1CN([C@H](C)c2cn(-c3ccc(OC)cc3)nn2)C(=O)[C@@H]2CCC[C@H]1N2S(=O)(=O)c1cc(Cl)cc(Cl)c1` [19c] were 1030 nM, 390 nM and 233 nM.
As for `C=C[C@H]1CN(CCO)C(=O)[C@@H]2CCC[C@H]1N2S(=O)(=O)c1cc(Cl)cc(Cl)c1` [20a], the inhibition constant (Ki) was found to be 387 nM on FKBP52, 20 nM at FKBP12 and 403 nM on FKBP51.
The like results for `C=C[C@H]1CN([C@@H](C)CO)C(=O)[C@@H]2CCC[C@H]1N2S(=O)(=O)c1cc(Cl)cc(Cl)c1` [20b, (1S,5S,6R)-10-((3,5-dichlorophenyl)sulfonyl)-3-((S)-1-hydroxypropan-2-yl)-5-vinyl-3,10-diazabicyclo[4.3.1]decan-2-one] were, in that order, 116 nM, 3.5 nM and 107 nM.
As for `C=C[C@H]1CN([C@H](C)CO)C(=O)[C@@H]2CCC[C@H]1N2S(=O)(=O)c1cc(Cl)cc(Cl)c1` [20c], the Ki on FKBP52, on FKBP12 and on FKBP51 was above 5000 nM throughout.
`C=C[C@H]1CN(CC(=O)O)C(=O)[C@@H]2CCC[C@H]1N2S(=O)(=O)c1cc(Cl)cc(Cl)c1` [21a]: the Ki turned out to be 5150 nM on LpMip (read-out: Ki LpMip), 320 nM on FKBP52, 33.4 nM at FKBP12 and 172 nM at FKBP51.
For `C=C[C@H]1CN([C@@H](C)C(=O)O)C(=O)[C@@H]2CCC[C@H]1N2S(=O)(=O)c1cc(Cl)cc(Cl)c1` [21b, (2S)-2-((1S,5S,6R)-10-((3,5-dichlorophenyl)sulfonyl)-2-oxo-5-vinyl-3,10-diazabicyclo[4.3.1]decan-3-yl)propanoic acid], the inhibition constant (Ki) on LpMip is 284 nM; on FKBP52, 80 nM; on FKBP12 it was 13 nM; at FKBP51, 22 nM.
For `C=C[C@H]1CN([C@H](C)C(=O)O)C(=O)[C@@H]2CCC[C@H]1N2S(=O)(=O)c1cc(Cl)cc(Cl)c1` [21c], the inhibitory constant (Ki) stood at 296 nM on FKBP52, 48 nM at FKBP12 and 123 nM on FKBP51.
Take `C=C[C@H]1CN(CCOC)C(=O)[C@@H]2CCC[C@H]1N2S(=O)(=O)c1cc(Cl)cc(Cl)c1` [22a]: the figures for the Ki on FKBP52, on FKBP12 and on FKBP51 were 377 nM, 59 nM and 529 nM, respectively.
Taken in the same sequence, the figures for `C=C[C@H]1CN([C@@H](C)COC)C(=O)[C@@H]2CCC[C@H]1N2S(=O)(=O)c1cc(Cl)cc(Cl)c1` [22b, (1S,5S,6R)-10-((3,5-dichlorophenyl)sulfonyl)-3-((S)-1-methoxypropan-2-yl)-5-vinyl-3,10-diazabicyclo[4.3.1]decan-2-one] were 205 nM, 14 nM and 204 nM.
The like results for `C=C[C@H]1CN([C@H](C)COC)C(=O)[C@@H]2CCC[C@H]1N2S(=O)(=O)c1cc(Cl)cc(Cl)c1` [22c] were, in that order, above 5000 nM, above 5000 nM and above 5000 nM.
As for `O=C1[C@@H]2CCC[C@H]([C@@H](CO)CN1Cc1ccccn1)N2S(=O)(=O)c1cc(Cl)cc(Cl)c1` [23a], the inhibition constant Ki was 467 nM on LpMip (read-out: Ki LpMip); 19 nM at FKBP52; 3.4 nM on FKBP12.6; 0.35 nM on FKBP12; 33 nM at FKBP51.
Turning to `C[C@@H](c1ccccn1)N1C[C@H](CO)[C@H]2CCC[C@@H](C1=O)N2S(=O)(=O)c1ccc2ncsc2c1` [25b, (1S,5S,6R)-10-(benzo[d]thiazol-6-ylsulfonyl)-5-(hydroxymethyl)-3-((S)-1-(pyridin-2-yl)ethyl)-3,10-diazabicyclo[4.3.1]decan-2-one], the Ki at LpMip came out at 237 nM; at FKBP12.6 it was 0.7 nM; at FKBP12, 1.5 nM.
